This is an account of results in patent US9518049B2, “Salt forms of (S)-quinuclidin-3-yl (2-(2-(4-fluorophenyl)thiazol-4-yl)propan-2-yl)carbamate” (Genzyme Corporation, priority 2013, dated 2016).

The experiment deals with K14 mouse model of type 2 Gaucher disease. The experiment can be described thus: K14 mouse model of type 2 Gaucher disease. The experiment is classed as in vivo. From the text:
As noted above, Gaucher Disease results from a deficiency of the lysosomal enzyme glucocerebrosidase (GC). In the most common phenotype of Gaucher disease (type 1), pathology is limited to the reticuloendothelial and skeletal systems and there are no neuropathic symptoms. See Barranger, Glucosylceramide lipidosis: Gaucher disease. In: Scriver C R B A, Sly W S, Valle D, editor. The Metabolic Basis of Inherited Disease. New York: McGraw-Hill. pp. 3635-3668 (2001). In neuropathic Gaucher disease (nGD), subdivided into type 2 and type 3 Gaucher disease, the deficiency of glucocerebrosidase (GC) causes glucosylceramide (GluCer; GL-1) and glucosylsphingosine (GluSph) to accumulate in the brain, leading to neurologic impairment. Type 2 Gaucher disease is characterized by early onset, rapid progression, extensive pathology in the viscera and central nervous system, and death usually by 2 years of age. Type 3 Gaucher disease, also known as subacute nGD, is an intermediate phenotype with varying age of onset and different degrees of severity and rates of progression. Goker-Alpan et al., The Journal of Pediatrics 143: 273-276 (2003). A recent development has produced the K14 lnl/lnl mouse model of type 2 Gaucher disease (hereinafter, the “K14 mouse”); this mouse model closely recapitulates the human disease showing ataxia, seizures, spasticity and a reduced median lifespan of only 14 days. Enquist et al., PNAS 104: 17483-17488 (2007).
As in patients with nGD, several mouse models of the disease have increased levels of GluCer and GluSph in the brain due to the deficiency in GC activity. Liu et al., PNAS 95: 2503-2508 (1998) and Nilsson, J. Neurochem 39: 709-718 (1982). The “K14” mice display a neuropathic phenotype that shares many pathologic features with type 2 Gaucher disease, such as neurodegeneration, astrogliosis, microglial proliferation, and increased levels of GluCer and GluSph in specific brain regions. Enquist et al. (2007).
Clinical management of patients affected by nGD poses a challenge for treating physicians both because of the severity of type 2 disease and the inability of the current therapies to cross the blood brain barrier (BBB). Current treatment of non-nGD relies on the intravenous delivery of recombinant human glucocerebrosidase (Imiglucerase; Cerezyme™) to replace the missing enzyme or the administration of glucosylceramide synthase inhibitors to attenuate substrate (GL-1) production. […] Current small molecule glucosylceramide synthase inhibitors in the clinic are not likely to address the neuropathic phenotypes of nGD.

With `CC(C)(NC(=O)OC1CN2CCC1CC2)c1cccc(-c2ccc(F)cc2)c1` (stereo not shown) [Gz161, Quinuclidin-3-yl (2-(4′-fluoro-[1,1′-biphenyl]-3-yl)propan-2-yl)carbamate], the brain neuropathology entry is recorded as “reduced” and the lifespan result was “extended”. Also, for the setting “brain”, the “brain GluCer” value is reported as “reduce” and the “brain GluSph” value is reported as “reduce”.
